Activity calls are given as the source filed them. No cut-off for these calls is given here.

The nature of data set [1]: Antitumor activity against […] cells xenografted in KM mouse assessed as liver weight at 240 mg/kg, ig administered every day for 10 days measured post last dose (reference value: 1.57 +/- 0.3 g). The settings on record: time 10 day. The format is functional. For orientation: A xenograft is tissue or cells of one species grown in another, often human tumour cells in immunodeficient mice.

The nature of data set [2]: Toxicity in […] lung cancer cells xenografted BALB/c mouse assessed as net weight at 80 mg/kg, ig administered every day for 10 days (reference value: 1.16 +/- 1.55 g). The format is organism-based. The settings on record: in vivo, po, 240 h, time 10 day.
The nature of data set [3]: Toxicity in […] cells xenografted KM mouse assessed as survival rate at 27 mg/kg, ig administered every day for 10 days relative to control. The format is organism-based. To be noted: in vivo, po, time 10 day.
Data set [4] is described as follows: Antitumor activity against […] cells xenografted in KM mouse assessed as tumor growth inhibition at 27 mg/kg, ig administered every day for 10 days relative to control. Format: functional. To be noted: H22, po, 240 h, time 10 day, read-out: TGI.
Data set [5] has as its target T1, Delta(3,5)-Delta(2,4)-dienoyl-CoA isomerase, mitochondrial (Homo sapiens) (UniProt Q13011).
T1 sequence (whole entry): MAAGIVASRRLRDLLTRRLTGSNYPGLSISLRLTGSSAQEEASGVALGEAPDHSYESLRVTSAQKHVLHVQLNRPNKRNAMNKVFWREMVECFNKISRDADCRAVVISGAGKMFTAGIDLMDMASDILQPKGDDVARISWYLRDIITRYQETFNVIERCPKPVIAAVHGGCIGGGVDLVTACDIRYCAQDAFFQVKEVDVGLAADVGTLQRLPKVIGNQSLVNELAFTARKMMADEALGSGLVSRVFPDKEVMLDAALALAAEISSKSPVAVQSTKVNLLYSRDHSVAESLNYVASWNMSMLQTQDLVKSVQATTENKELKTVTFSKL
The data set is described as follows: Binding affinity to delta(3,5)-delta(2,4)-dienoyl-CoA isomerase, mitochondrial in human A549 cells by LC-MS/MS analysis. Format: cell-based.

Data set [6] can be described thus: Antitumor activity against […] cancer cells xenografted in BALB/c mouse assessed as lung weight at 240 mg/kg, ig administered every day for 10 days measured post last dose (reference value: 0.13 +/- 0.03 g). The settings on record: time 10 day. Format: functional, Lewis lung carcinoma.
Data set [7] can be described thus: Toxicity in […] lung cancer cells xenografted BALB/c mouse assessed as survival rate at 27 mg/kg, ig administered every day for 10 days (reference value: 100%). The settings on record: in vivo, po, time 10 day. The format is organism-based.

Consider `CC(C)[C@@H](C)/C=C/[C@@H](C)[C@H]1CC[C@H]2C3=CC=C4C[C@@H](O)CC[C@]4(C)[C@H]3CC[C@]12C` [ERGOSTEROL], for which the Activity is reported as 1.57 g in data set [1], -0.95 g in data set [2] and 0.13 g in data set [6]. Also, the survival at 240 h in data set [3] and in data set [7] was 100% throughout. For the same compound, the inhibition in vivo at 27 mg/kg in data set [4] was 23.4%. In data set [5], the result was Active.

Values taken from ChEMBL document CHEMBL4706663, “Large-scale isolation and antitumor mechanism evaluation of compounds from the traditional Chinese medicine Cordyceps Militaris” (Eur J Med Chem, 2021).
